Laboratory results reported in PMC12326382, “Discovery of a novel RSK2 inhibitor for the treatment of metastatic pancreatic cancer” (Journal of Enzyme Inhibition and Medicinal Chemistry, 2025).

Biological target: T1, RSK2 (Homo sapiens, UniProt P51812)
T1 construct: gene RPS6KA3
Experiment: FRET kinase assay (Thermo Fisher LanthaScreen / Z'-LYTE)
Format: biochemical

T1 sequence (P51812 whole entry): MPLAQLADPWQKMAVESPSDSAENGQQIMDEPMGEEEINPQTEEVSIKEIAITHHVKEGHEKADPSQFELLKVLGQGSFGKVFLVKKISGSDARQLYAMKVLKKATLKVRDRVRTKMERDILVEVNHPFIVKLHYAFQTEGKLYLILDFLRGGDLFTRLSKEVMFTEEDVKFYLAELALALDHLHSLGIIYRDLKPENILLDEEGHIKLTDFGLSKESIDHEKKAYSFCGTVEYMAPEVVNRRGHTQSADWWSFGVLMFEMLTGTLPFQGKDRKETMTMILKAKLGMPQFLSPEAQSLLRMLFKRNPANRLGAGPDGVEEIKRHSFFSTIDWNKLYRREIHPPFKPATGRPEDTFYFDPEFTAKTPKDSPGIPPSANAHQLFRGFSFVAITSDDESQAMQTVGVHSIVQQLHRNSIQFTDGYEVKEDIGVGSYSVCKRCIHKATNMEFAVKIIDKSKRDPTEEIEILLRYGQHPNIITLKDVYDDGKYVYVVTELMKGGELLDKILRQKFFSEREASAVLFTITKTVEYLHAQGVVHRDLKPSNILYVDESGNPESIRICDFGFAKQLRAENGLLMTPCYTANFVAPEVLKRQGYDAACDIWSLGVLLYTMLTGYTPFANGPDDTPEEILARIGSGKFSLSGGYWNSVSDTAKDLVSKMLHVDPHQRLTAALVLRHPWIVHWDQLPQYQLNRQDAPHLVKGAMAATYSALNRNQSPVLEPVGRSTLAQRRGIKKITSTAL

Molecule `Cc1ccc2[nH]c(=O)c(-c3cnc(=O)[nH]n3)c(O)c2c1` [NSYSU-115] has an IC50 of 45.5 nM.
